Several values for one entry are separate records, joined by “and”; a condition that tells them apart may be missing. Identical values can stand only once.
Test: Pilot clinical trial of Lipitor-Liprimar: serum lipids in human volunteers
Assay type: in vivo
Set-up: TG / CH-HDL / CH, mean / TG, mean / CH-LDL, mean / CH-HDL, mean: unit not given here
Procedure: Ten volunteers, 5 males and 5 females, aged 45-55 years old, were selected for this pilot clinical trial. 40 mg of Lipitor-Liprimar was given orally, with food, to each patient daily for two months.
Serum samples were collected from the blood of the patients before the treatment and after two months of treatment.

[1] = Lipitor 40 mg daily, two months
[2] = individual patients, Lipitor 40 mg daily, orally, after 2 months of treatment
[3] = mean of 10 patients, Lipitor 40 mg daily, orally, after 2 months of treatment

With `CC(C)c1c(C(=O)Nc2ccccc2)c(-c2ccccc2)c(-c2ccc(F)cc2)n1CC[C@@H](O)C[C@@H](O)CC(=O)O` [Lipitor, Atorvastatin] the “total cholesterol (CH) reduction” value [1] was 17%, the “triglyceride (TG) reduction” value [1] was 22% and the CH-LDL reduction (Lipitor-Liprimar 40 mg daily, two months) was 35%. For the same molecule, the CH [2] was 200 mg/dL (2×) and 140 mg/dL and 176 mg/dL and 188 mg/dL and 197 mg/dL and 170 mg/dL and 184 mg/dL and 209 mg/dL and 154 mg/dL, the CH-HDL [2] was 38 and 42 (3×) and 47 (2×) and 39 and 43 (2×) and 49 and the CH-LDL [2] was 120 mg/dL (2×) and 145 mg/dL and 110 mg/dL (2×) and 146 mg/dL and 140 mg/dL and 100 mg/dL and 130 mg/dL (2×). The TG [2] was 120 and 136 and 99 and 98 and 87 and 90 and 133 and 105 and 172 and 96, the “CH, mean” value [3] was 182 and the “CH-HDL, mean” value [3] was 43. For the same molecule, the “CH-LDL, mean” value [3] was 100 and the “TG, mean” value [3] was 113.
